These results are taken from patent US20230009323A1, “COMPOUNDS AND METHODS FOR THE TREATMENT OF CRYPTOSPORIDIOSIS” (The Broad Institute, Inc., priority 2019, published 2023).

pEC50: −log10 of the molar value. Where two headings read alike, the source gives them in different places.

Data set [1] deals with C. parvum Iowa isolate (Bunch Grass Farm). The data set is described as follows: C. parvum Iowa isolate (Bunch Grass Farm) growth in HCT-8 cells, high-content microscopy. The data set is classed as cell-based. Particulars: Cryptosporidium parvum. The protocol: A high-content microscopy assay was used to measure activity of compounds against C. parvum grown in the human adenocarcinoma cell line HCT-8 (ATCC) as disclosed in Bessoff, K., et al., Antimicrobial agents and chemotherapy 57, 1804-1814, doi:10.1128/AAC.02460-12 (2013), hereby incorporated by reference in its entirety. HCT-8 cells were cultured in 384-well clear-bottomed plates in 50 μL per well of RPMI 1640 medium ([…]), 120 U·mL^−1 penicillin, and 120 μg·mL^−1 streptomycin (ATCC) at 37° C. under 5% CO2. For compound screening and follow-up SAR studies, confluent cell monolayers were infected with C. parvum Iowa isolate oocysts [Bunch Grass Farm (Deary, Id.); ˜5,500 oocysts per well] after inducing excystation by treatment for 10 min at 37° C. with 10 mM HCl and then 10 min at 16° C. in 2 mM sodium taurocholate. Compounds were added at the indicated concentrations 3 h after monolayer infection. After incubation (37° C., 5% CO2) for 48 h, the cells were washed three times with PBS containing 111 mM D-Galactose and fixed by adding an equal volume of 8% formaldehyde in PBS. Cell monolayers were then prepared for microscopy by permeabilizing with 0.1% Triton X-100, washing three times with PBS with 0.1% Tween 20, blocking with 4% bovine serum albumin (BSA) in PBS for 2 h at 37° C. or 4° C. overnight, and staining parasitophorous vacuoles with 1.33 μg·mL^−1 of fluorescein-labeled Vicia villosa lectin (Vector Laboratories) diluted in 1% BSA in PBS with 0.1% Tween 20 for 1 h at 37° C. DNA was then stained by adding Hoechst 33258 (AnaSpec) at a final concentration of 0.09 mM diluted in water, followed by washing five times with PBS containing 0.1% Tween 20. Images were acquired using a Nikon Eclipse TE2000 epifluorescence microscope with an automated stage that was programmed using NIS-Elements Advanced Research software (Nikon) to focus on the center of each well and take a 3×3 composite image using an EXi Blue fluorescence microscopy camera (QImaging) with a 20× objective (numerical aperture 0.45). Nucleus and parasite images were exported separately as tif files and analyzed using NIH ImageJ and previously reported macros, and data analysis and graphing were done using GraphPad Prism software, version 6.01. […]

Data set [2] has as its system C. parvum (Iowa) Sterling. The data set is described as follows: C. parvum (Iowa) Sterling growth in HCT-8 cells. Particulars: Cryptosporidium parvum. The data set is classed as cell-based. On the procedure:
(§1) Studies using farm C. parvum isolates and the C. hominis TU502 isolate were performed by Calibr at Scripps Research (La Jolla, Calif.) in 1,536-well plates using a slightly modified immunofluorescence assay as described in Love, M. S. et al. PLoS neglected tropical diseases 11, e0005373, doi:10.1371/journal.pntd.0005373 (2017), hereby incorporated by reference in its entirety. HCT-8 cell culture medium was replaced with RPMI 1640 medium supplemented with 2% heat-inactivated horse serum, 100 U·mL^−1 penicillin, and […] 24 h prior to infection with the indicated isolate. The C. parvum Iowa isolate was included as a reference in all experiments. Imaging was performed using a Cellnsight CX5 High Content screening platform (Thermo Scientific) with a 10× objective and acquisition of one microscopic field per well. Images were processed using HCS Studio Scan software, and the selected-object count (HCT-8 cells) and spot count (parasitophorous vacuoles) were analyzed in Genedata Screener (version 13.0; Standard). Dose-response curves and EC50 values were calculated using the Smart Fit function of Genedata Analyzer.

Data set [3] concerns C. parvum (Field Isolate) WSU. The data set is described as follows: C. parvum field isolate (WSU) growth in HCT-8 cells. Particulars: Cryptosporidium parvum. The data set is classed as cell-based. On the procedure:
as §1

The test system of data set [4] is C. hominis (TU 502). The data set is described as follows: C. hominis TU502 growth in HCT-8 cells. Particulars: Cryptosporidium hominis. The data set is classed as cell-based. The protocol:
as §1

The nature of data set [5]: HepG2 cytotoxicity. The data set is classed as cell-based. Particulars: human, HepG2 cells.
In data set [6] the test system is HepG2 cells. The data set is described as follows: HepG2 cytotoxicity. The data set is classed as cell-based. Particulars: C. parvum Iowa isolate (1% FBS) EC50 compared to HepG2 CC50.
A short description of data set [7]: HEK293T cytotoxicity. The data set is classed as cell-based. Particulars: human, HEK293T cells.
The test system of data set [8] is C. parvum. The data set is described as follows: NOD SCID gamma mouse model of established cryptosporidiosis, fecal oocyst shedding by qPCR. It counts as in vivo, NOD SCID gamma mice. As to conditions: oral, 50 mg/kg every 24 h for 4 days. The text has this:
FIG. 4A is a schematic of NOD SCID gamma (NSG) mouse model of established intestinal cryptosporidiosis. Intestinal C. parvum infection was established by oral gavage of ˜10^5 oocysts either 7 days (FIGS. 4B and C) or 14 days (FIG. 4D) prior to oral treatment with bicyclic azetidines, vehicle, or paromomycin (positive control). All data are the mean and SEM (n=4 mice per experimental group) of parasite shedding per mg of feces measured by qPCR with results for individual mice shown as superimposed data points. Data points for which no parasite DNA was detected are shown at the qPCR assay limit of detection (0.1 oocysts per mg feces).
NOD scid gamma mice (NOD.Cg-Prkdcscid Il2rgtmlWjl/Szj; Jackson Laboratory, Bar Harbor, Me.) (NSG) were used to model established Cryptosporidium infection. All NSG mouse studies were performed in compliance with animal care guidelines and with approval by the University of Vermont Institutional Animal Care and Use Committee. Mice were acquired at three to four weeks of age, and acclimatized for one week prior to infection by oral gavage of ˜10^5 C. parvum Iowa isolate (Bunch Grass Farms) oocysts. They were then treated at the specified times and dosages with each compound dissolved in 0.5% hydroxypropylmethyl cellulose, 0.5% Tween 80 (v/v) plus 5% DMSO.
This cryptosporidiosis infection model used 3-4 week old, freshly weaned, NOD SCID gamma mice orally infected with C. parvum oocysts (˜1×10^5). The infection was monitored by qPCR of feces with primers specific for C. parvum and data are shown as number of oocysts milligram^−1 of feces. Six days following infection and upon confirmation of parasite shedding by qPCR, the three compounds, negative and positive control were orally administered at 50 mg·kg^−1 (body weight) every 24 h for 4 days. (FIGS. 4A-D). […] We then performed a dose-ranging study with Compound 11 using the same immunocompromised mouse model and dosing regimens of 5, 20 and 40 mg·kg^−1 every 24 h for 4 days or 10 mg·kg^−1 every 24 h for 7 days. Mice were monitored for an additional 14 days for relapse of infection.
Background: In qPCR the cycle at which signal appears reflects the starting amount.

In general, pEC50 refers to the negative decadic logarithm of the EC50, by convention in mol/L. For orientation: CC50 means the concentration that lowers cell viability or growth by half. Higher therefore signals lower toxicity to the cells. As for `COc1ccc(NC(=O)N2CCCCN3[C@H](CN(C)C(C)=O)[C@H](c4ccc(C#Cc5ccccc5)cc4)[C@@H]3C2)cc1` [Compound 16, (8R,9S,10S)-N-(4-methoxyphenyl)-10-((N-methylacetamido)methyl)-9-(4-(phenylethynyl)phenyl)-1,6-diazabicyclo[6.2.0]decane-6-carboxamide], the pEC50 was 8.70 in data set [1] (read-out: C. parvum (Iowa) (1% FBS) BGF EC50); 8.10 in data set [1] (read-out: C. parvum (Iowa) (10% FBS) BGF EC50); 9.22 in data set [2]; 8.22 in data set [3]; 8.52 in data set [4]. The figures for the CC50 in data set [5] and in data set [7] were 25000 nM and 27000 nM, respectively. In addition, the selectivity index in data set [6] is listed as > 10,000. Also, the “reduction in oocyst shedding (oocysts per mg feces)” value in data set [8] is listed as “greatest reduction in oocysts”.
